# Measured values reported in patent US4416884A, “Piperazinylbenzoheterocyclic compounds” (Otsuka Pharmaceutical Co., Ltd., priority 1978, dated 1983).
# Like-named read-outs stand apart in the source and are kept apart here.
# Columns and labels:
# [1] = system: Aeromonas hydrophila IFO 12981; assay: antimicrobial activity on bacteria which cause infectious diseases in fish; type: cell-based
# Description: (§1) The antimicrobial activity of the following test compounds on various test organisms listed below was determined by the serial dilution method on agar plate (Heart Infusion agar produced by Difco Co.) (see CHEMOTHERAPY 22, pp. 1126-1128 (1974)), and the minimum inhibitory concentrations (mcg/ml) obtained are shown in Table 1 below.
# (§2) A sample of each test organism was prepared so that the population of the organism was 1×10^8 cells/ml (O.D. 660 mμ=0.07 to 0.16) and 1×10^6 cells/ml (which was obtained by diluting the above 1×10^8 cells/ml preparation).
# (§3) In the same manner as above, the antimicrobial activity of the following compounds on various test organisms which cause infectious diseases in fish was determined.
# [2] = system: Aeromonas salmonicida IFO 12718; assay: as above; type: cell-based
# Description: as §1, §2, §3
# [3] = system: Pseudomonas fluorescens IFO 12180; assay: as above; type: cell-based; conditions: IFO12180, read-out: Minimum Inhibitory Concentration
# Description: as §1, §2, §3
# [4] = system: Aeromonas hydrophila IFO 12658; assay: as above; type: cell-based
# Description: as §1, §2, §3
# [5] = system: Pseudomonas fluorescens IFO 12568; assay: as above; type: cell-based
# Description: as §1, §2, §3
# [6] = system: Vibrio anguillarum IFO 13266; assay: as above; type: cell-based
# Description: as §1, §2, §3
# [7] = system: Vibrio anguillarum IFO 12710; assay: as above; type: cell-based
# Description: as §1, §2, §3
# [8] = system: Aeromonas salmonicida IFO 12659; assay: as above; type: cell-based
# Description: as §1, §2, §3
# [9] = acute toxicity by intravenous administration in mice; conditions: mouse, in vivo, i.v., mice not fed for 12 hours
# Description: The acute toxicity of the compounds of this invention having the formula (I) was determined by intravenous administration (i.v.) in mice which had not been fed for 12 hours prior to the test. LD50 values (50% lethal dose) obtained are set forth below:
# In the same manner as above, LD50 values were determined for all the other test compounds and the LD50 values obtained were at least 500 mg/kg.
# [10] = system: Staphylococcus aureus FDA 209 P; assay: antimicrobial activity, serial dilution method on agar plate; type: cell-based
# In short: (§4)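 MIC (mcg/ml) read on Heart Infusion agar plates carrying serial compound dilutions. Organisms inoculated at two densities: 1×10^8 cells/ml, set by O.D. 660 mμ=0.07 to 0.16, and a 1×10^6 cells/ml dilution of that suspension.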
# [11] = system: Serattia marcescens IFO 12648; assay: as above; type: cell-based
# In short: as §4
# [12] = system: Shigella Sonnei EW 33; assay: as above; type: cell-based; conditions: read-out: Minimum Inhibitory Concentration
# In short: as §4
# [13] = system: Proteus vulgaris IID OX-19; assay: as above; type: cell-based; conditions: read-out: Minimum Inhibitory Concentration
# In short: as §4
# [14] = system: Escherichia Coli NIHJ; assay: as above; type: cell-based
# In short: as §4
# [15] = system: Klebsiella pneumoniae ST-101; assay: as above; type: cell-based
# In short: as §4
# [16] = system: Klebsiella pneumoniae; assay: as above; type: cell-based
# In short: as §4
# [17] = system: Yersinia enterocolitica 0-3; assay: as above; type: cell-based
# In short: as §4
# [18] = system: Pseudomonas aeruginosa ATCC 10145; assay: as above; type: cell-based
# In short: as §4
# [19] = system: Escherichia Coli NIHJ JC-2 (IFO 12734); assay: as above; type: cell-based; conditions: Escherichia coli, read-out: Minimum Inhibitory Concentration
# In short: as §4
# [20] = system: Proteus rettgeri NIH 96; assay: as above; type: cell-based; conditions: Providencia rettgeri
# In short: as §4
# [21] = system: Proteus morganii IID Kono; assay: as above; type: cell-based; conditions: Morganella morganii
# In short: as §4
# [22] = system: Bacillus subtilis PCI 219; assay: as above; type: cell-based
# In short: as §4
# [23] = system: Salmonella typhi 0-901 (NCTC 8393); assay: as above; type: cell-based; conditions: Salmonella enterica
# In short: as §4
# [24] = system: Pseudomonas aeruginosa E-2; assay: as above; type: cell-based; conditions: read-out: Minimum Inhibitory Concentration
# In short: as §4
# [25] = system: Streptococcus pyogenes IID S-23; assay: as above; type: cell-based; conditions: read-out: Minimum Inhibitory Concentration
# In short: as §4
# [26] = system: Pseudomonas aeruginosa NCTC 10490; assay: as above; type: cell-based; conditions: read-out: Minimum Inhibitory Concentration
# In short: as §4
# [27] = read-out: Minimum Inhibitory Concentration, inoculum 1 × 10^6 cells/ml
# [28] = read-out: Minimum Inhibitory Concentration, inoculum 1 × 10^8 cells/ml
# [29] = inoculum 1 × 10^6 cells/ml, read-out: Minimum Inhibitory Concentration
# [30] = inoculum 1 × 10^8 cells/ml, read-out: Minimum Inhibitory Concentration
structure (smiles),measurement,setting,value
O=C(O)c1cn2c3c(c(N4CCNCC4)ccc3c1=O)CCC2 [B],MIC,"[1]; IFO12981, inoculum 10^6, read-out: Minimum Inhibitory Concentration",0.4 mg/L
same,MIC,"[1]; IFO12981, inoculum 10^8, read-out: Minimum Inhibitory Concentration",0.8 mg/L
same,MIC,"[2]; IFO12718, inoculum 10^6, read-out: Minimum Inhibitory Concentration",0.4 mg/L
same,MIC,"[2]; IFO12718, inoculum 10^8, read-out: Minimum Inhibitory Concentration",0.8 mg/L
same,MIC,[3],6.3 mg/L
same,MIC,"[4]; IFO12658, inoculum 10^6, read-out: Minimum Inhibitory Concentration",0.8 mg/L
same,MIC,"[4]; IFO12658, inoculum 10^8, read-out: Minimum Inhibitory Concentration",1.6 mg/L
same,MIC,"[5]; IFO12568, read-out: Minimum Inhibitory Concentration, inoculum 10^6",25 mg/L
same,MIC,"[5]; IFO12568, read-out: Minimum Inhibitory Concentration, inoculum 10^8",50 mg/L
same,MIC,"[6]; IFO13266, read-out: Minimum Inhibitory Concentration, inoculum 10^6",0.4 mg/L
same,MIC,"[6]; IFO13266, read-out: Minimum Inhibitory Concentration, inoculum 10^8",0.8 mg/L
same,MIC,"[7]; IFO12710, read-out: Minimum Inhibitory Concentration, inoculum 10^6",3.1 mg/L
same,MIC,"[7]; IFO12710, read-out: Minimum Inhibitory Concentration, inoculum 10^8",12.5 mg/L
same,MIC,"[8]; IFO12659, inoculum 10^6, read-out: Minimum Inhibitory Concentration",0.8 mg/L
same,MIC,"[8]; IFO12659, inoculum 10^8, read-out: Minimum Inhibitory Concentration",1.6 mg/L
same,LD50,[9],1100 mg/kg
same,MIC,"[10]; FDA209, read-out: Minimum Inhibitory Concentration, inoculum 1 × 10^6 cells/ml",12.5 mg/L
same,MIC,"[10]; FDA209, read-out: Minimum Inhibitory Concentration, inoculum 1 × 10^8 cells/ml",2.5 mg/L
same,MIC,[11]; [27],3.1 mg/L
same,MIC,[11]; [28],6.3 mg/L
same,MIC,[12]; inoculum 1 × 10^6 cells/ml,1.6 mg/L
same,MIC,[12]; inoculum 1 × 10^8 cells/ml,1.6 mg/L
same,MIC,"[13]; IIDOX19, inoculum 1 × 10^6 cells/ml",1.6 mg/L
same,MIC,"[13]; IIDOX19, inoculum 1 × 10^8 cells/ml",12.5 mg/L
same,MIC,[14]; [27],0.8 mg/L
same,MIC,[14]; [28],1.6 mg/L
same,MIC,"[15]; ST101, read-out: Minimum Inhibitory Concentration, inoculum 1 × 10^6 cells/ml",1.6 mg/L
same,MIC,"[15]; ST101, read-out: Minimum Inhibitory Concentration, inoculum 1 × 10^8 cells/ml",1.6 mg/L
same,MIC,[16]; [27],1.6 mg/L
same,MIC,[16]; [28],6.3 mg/L
same,MIC,"[17]; Yersinia enterocolitica, 03, read-out: Minimum Inhibitory Concentration, inoculum 1 × 10^6 cells/ml",3.1 mg/L
same,MIC,"[17]; Yersinia enterocolitica, 03, read-out: Minimum Inhibitory Concentration, inoculum 1 × 10^8 cells/ml",12.5 mg/L
same,MIC,"[18]; ATCC10145, read-out: Minimum Inhibitory Concentration, inoculum 1 × 10^6 cells/ml",6.3 mg/L
same,MIC,"[18]; ATCC10145, read-out: Minimum Inhibitory Concentration, inoculum 1 × 10^8 cells/ml",12.5 mg/L
same,MIC,[19],3.1 mg/L
same,MIC,"[20]; NIH96, read-out: Minimum Inhibitory Concentration, inoculum 1 × 10^6 cells/ml",1.6 mg/L
same,MIC,"[20]; NIH96, read-out: Minimum Inhibitory Concentration, inoculum 1 × 10^8 cells/ml",1.6 mg/L
same,MIC,[21]; [27],6.3 mg/L
same,MIC,[21]; [28],12.5 mg/L
same,MIC,"[22]; PCI219, read-out: Minimum Inhibitory Concentration, inoculum 1 × 10^6 cells/ml",12.5 mg/L
same,MIC,"[22]; PCI219, read-out: Minimum Inhibitory Concentration, inoculum 1 × 10^8 cells/ml",12.5 mg/L
same,MIC,[23]; [29],0.8 mg/L
same,MIC,[23]; [30],0.8 mg/L
CC1Cc2c(Cl)ccc3c(=O)c(C(=O)O)cn1c23 (centres unmarked) [G],MIC,"[10]; FDA209, inoculum 1 × 10^6 cells/ml, read-out: Minimum Inhibitory Concentration",3.1 mg/L
same,MIC,"[10]; FDA209, inoculum 1 × 10^8 cells/ml, read-out: Minimum Inhibitory Concentration",3.1 mg/L
same,MIC,[11]; [29],1.6 mg/L
same,MIC,[11]; [30],3.1 mg/L
same,MIC,[12]; inoculum 1 × 10^6 cells/ml,1.6 mg/L
same,MIC,[12]; inoculum 1 × 10^8 cells/ml,1.6 mg/L
same,MIC,[14]; [29],0.4 mg/L
same,MIC,[14]; [30],0.8 mg/L
same,MIC,"[24]; E2, inoculum 1 × 10^6 cells/ml",50 mg/L
same,MIC,"[24]; E2, inoculum 1 × 10^8 cells/ml",100 mg/L
same,MIC,[16]; [29],1.6 mg/L
same,MIC,[16]; [30],3.1 mg/L
same,MIC,"[18]; ATCC10145, inoculum 1 × 10^6 cells/ml, read-out: Minimum Inhibitory Concentration",25 mg/L
same,MIC,"[18]; ATCC10145, inoculum 1 × 10^8 cells/ml, read-out: Minimum Inhibitory Concentration",50 mg/L
same,MIC,"[20]; NIH96, inoculum 1 × 10^6 cells/ml, read-out: Minimum Inhibitory Concentration",0.2 mg/L
same,MIC,"[20]; NIH96, inoculum 1 × 10^8 cells/ml, read-out: Minimum Inhibitory Concentration",0.4 mg/L
same,MIC,"[25]; IIDS23, inoculum 1 × 10^6 cells/ml",> 100 mg/L
same,MIC,"[25]; IIDS23, inoculum 1 × 10^8 cells/ml",> 100 mg/L
same,MIC,"[26]; NCTC10490, inoculum 1 × 10^6 cells/ml",12.5 mg/L
same,MIC,"[26]; NCTC10490, inoculum 1 × 10^8 cells/ml",25 mg/L
same,MIC,[23]; [27],0.8 mg/L
same,MIC,[23]; [28],0.8 mg/L
